The values that follow come from patent publication EP4810492A1, “NMT INHIBITOR, PREPARATION METHOD THEREFOR, AND USE THEREOF” (Nanjing Synnocare Pharmaceutical Technology Co., Ltd., priority 2023, dated 2025).

Bounds are passed on as bounds.

System in one series: not listed separately
In words: Body weight of MV-4-11 xenograft model mice (tolerability). It counts as in vivo. The conditions noted are these: female BALB/c nude mice, PO QD 30 mg/kg, Figure 1. The source says: (§1) To evaluate the effect of the compounds of the present invention on tumor growth, an MV-4-11 human myelomonocytic leukemia xenograft mouse model was established. Female BALB/c nude mice were procured from Shanghai Jihui Laboratory Animal Care Co., Ltd. Upon arrival, the mice were 6-7 weeks old and weighed 18-22 g. They were housed in specific pathogen-free (SPF) individually ventilated cages (IVC) at a density of 2-6 mice per cage, with ad libitum access to standard diet and water. The housing environment was maintained at 20 - 26 °C (68 - 79 °F) with a relative humidity of 40-70%, under a 12-hour light/dark cycle (lights on from 05:00 to 17:00). The study commenced after a one-week acclimatization period.
(§2) Human myelomonocytic leukemia MV-4-11 cells (ATCC, CRL-9591) were maintained in suspension culture using IMDM medium (Gibco, 12440-053) supplemented with 10% heat-inactivated fetal bovine serum (FBS; Gibco, 10099-141C) at 37 °C in a 5% CO2 atmosphere. Cells were passaged 2-3 times per week. Upon reaching the exponential growth phase, cells were harvested, counted, and inoculated subcutaneously into the right dorsal flank of female nude mice. Each mouse received a 200 µL suspension containing 8 × 10^6 MV-4-11 cells (100 µL cell suspension + 100 µL Matrigel basement membrane matrix, Corning, 354234). Thirteen days post-inoculation, when subcutaneous tumor volumes reached 100 - 300 mm^3 , tumor-bearing mice with appropriate morphology and uniform size were selected. Using stratified randomization, mice were assigned to experimental groups (n = 5 per group). Oral administration (PO, once daily [QD]) was initiated on the day of grouping, with all compounds of the present invention dosed at 30 mg/kg. During the dosing period, tumor diameters were measured twice weekly using digital calipers, and body weights were recorded. In the posttreatment observation period, tumor diameters and body weights were measured once weekly. Tumor volume (V) was calculated using the formula: V = 0.5 *a * b^2 , where a represents the long diameter and b represents the short diameter of the tumor.
(§3) The anti-tumor efficacy of the compounds was evaluated using the tumor growth inhibition percentage (TGI%), calculated by the formula: TGI(%) = [1 - (TVi - TV0) / (TVVi - TVV0)] *100%, where TV0 and TVV0 represent the mean tumor volumes on day 0 for the treatment and control groups, respectively, and TVi and TVVi represent the mean tumor volumes on day i for the treatment and control groups, respectively. Data were plotted using GraphPad Prism software. Tumor volume and body weight data are expressed as mean ± SEM and plotted as a function of time.
`CCc1nn(C)c(C)c1NS(=O)(=O)c1c(Cl)cc(-c2ccc3sc4c(c3c2)CNCC4)cc1Cl` [Compound 2]: the Body weight result was “slight decrease in body weight during the early phase of dosing, which subsequently returned to normal”.

Consider `Cc1c(NS(=O)(=O)c2c(Cl)cc(-c3ccc4sc5c(c4c3)CNCC5)cc2Cl)c(CC(C)C)nn1C` [Compound 3], for which the Body weight result is listed as “no weight loss throughout the study”.

As to `Cc1c(NS(=O)(=O)c2c(Cl)cc(-c3ccc4sc5c(c4c3)CNCC5)cc2Cl)c(CC#N)nn1C` [Compound 13], the Body weight result is “no weight loss throughout the study”.

Consider `Cc1c(NS(=O)(=O)c2c(Cl)cc(-c3ccc4oc5c(c4c3)CNCC5)cc2Cl)c(CC(C)C)nn1C` [Compound 45], for which the Body weight entry is on record as “slight weight loss in the later phase”.

Staying with this series, now noted: female BALB/c nude mice, PO QD 30 mg/kg, later phase.
`Cc1c(NS(=O)(=O)c2c(Cl)cc(-c3ccc4oc5c(c4c3)CNCC5)cc2Cl)c(CC(C)C)nn1C` [Compound 45] yielded a Weight loss not above 10%.

A further series deals with MV-4-11 cells. In words: Anti-proliferative activity against MV-4-11 cells (cell viability chemiluminescence). The conditions noted are these: Homo sapiens, MV4-11, 72 h, MV-4-11 human monocytic leukemia cells, three days of exposure. It counts as cell-based. The procedure: This study utilized a cell proliferation assay to analyze the cytotoxicity of MV-4-11 human monocytic leukemia cells after three days of exposure to NMT1 inhibitors. The MV-4-11 cell line was purchased from Nanjing Cobuilder Biotechnology Co., Ltd., and cultured in IMDM medium (Viva cell) in an incubator (Thermo) at 37 °C with 5% CO2. In this experiment, NMT1 inhibitors were dissolved in DMSO to obtain 600 µM stock solutions. Dose-response solutions were prepared with a top endpoint compound concentration of 3 µM, followed by three-fold serial dilutions in DMSO, totaling eight data points. The final concentration of DMSO was 0.5%.
MV-4-11 cells were seeded into a white 96-well plate, 80 µL of cell suspension per well, containing 6000 MV-4-11 cells. The cell plate was placed in the CO2 incubator for overnight culture. Then, 20 µL of NMT1 inhibitor solutions at different concentrations were added to the wells. The 96-well plate was placed back into the incubator for three days. Another cell plate was prepared, and the signal was read on the day of drug addition to serve as the maximum value (Max value in the equation below) for data analysis. To this cell plate, 25 µL of cell viability chemiluminescence detection reagent was added per well, followed by incubation at room temperature for 10 minutes to stabilize the luminescence signal. A multi-label analyzer was used for reading.
The raw data were converted into inhibition rates using the equation (Sample - Min) / (Max - Min) * 100%. The IC50 values were then determined by fitting a four-parameter curve (using the "log(inhibitor) vs. response - Variable slope" model in GraphPad Prism). Min: wells treated with 0.5% DMSO; Max: Day 0 wells. Table 1 provides the inhibitory activity of the compounds of the invention on MV-4-11 cell proliferation. Table 1: Compound Inhibitory Activity against NMT1 Enzyme (IC50) and Anti-proliferative Activity against MV-4-11 Cell line (IC50)
In turn, `Cc1c(NS(=O)(=O)c2c(Cl)cc(-c3ccc4sc5c(c4c3)CNCC5)cc2Cl)c(CC#N)nn1C` [Compound 13] displayed an IC50 of 19.3 nM.

The series is the same for the next values; noted with them: MV4-11, 72 h; MV-4-11 human monocytic leukemia cells, three days of exposure.
Molecule `CCc1nn(C)c(C)c1NS(=O)(=O)c1c(Cl)cc(-c2ccc3sc4c(c3c2)CNCC4)cc1Cl` [Compound 2] gave an IC50 of 5.43 nM.

`Cc1c(NS(=O)(=O)c2c(Cl)cc(-c3ccc4sc5c(c4c3)CNCC5)cc2Cl)c(CC(C)C)nn1C` [Compound 3] yielded an IC50 of 15 nM.

`Cc1c(NS(=O)(=O)c2c(Cl)cc(-c3ccc4oc5c(c4c3)CNCC5)cc2Cl)c(CC(C)C)nn1C` [Compound 45] had an IC50 of 43.7 nM.

System in the next series: not listed separately
As to the kind of experiment: Plasma concentrations in mice following oral administration. The conditions noted are these: ICR mice, oral single dose of 10 mg/kg in 0.5% CMC, 1 h post-dose, Mean ± SEM, n = 3.
Excerpt: This study evaluated the plasma concentrations of the compounds of the present invention in mice. ICR mice were procured from JOINN Laboratories (Suzhou) Co., Ltd. At the initiation of dosing, the animals were 6-8 weeks old and weighed 18-25 g. Mice were housed in transparent plastic cages (400 mm*240 mm*200 mm). The animal facility maintained a 12-hour light/12-hour dark cycle (lights on 07:00-19:00) using fluorescent lighting. The dark period may be intermittently interrupted as required for study-related activities. Ambient temperature and relative humidity were controlled within 20-26 °C and 40-70%, respectively. Animals were fed certified rodent chow and provided with drinking water filtered and sterilized through an ultrapure water system. All animals had ad libitum access to water throughout the study. Animals were fasted for at least 12 hours prior to dosing, and food was restored 4 hours post-dosing.
Prior to dosing, body weights were recorded, and healthy animals with similar weights were selected and randomly assigned to groups (n = 3 per group) based on body weight. The compounds were formulated in a 0.5% aqueous carboxymethyl cellulose (CMC) solution and administered orally at a single dose of 10 mg/kg. Blood samples (≥0.2 mL) were collected via venipuncture at 1 h and 4 h post-dose into EDTA-K2 anticoagulant tubes. Tubes were gently inverted to mix, immediately placed in an ice-water bath, and rapidly centrifuged at 4,000 rpm for 10 min at 4 °C to separate plasma. Plasma was stored at -70 °C until analysis.
Calibration curve and QC plasma samples: Working solutions for the calibration curve and QC samples were prepared using 80% methanol in water (Thermo Fisher) as the diluent. To prepare plasma calibration standards and QC samples, 5 µL of each working solution was added to 45 µL of blank plasma and mixed. To the prepared calibration and QC samples, 300 µL of internal standard solution (tolbutamide at 8 µg/mL in acetonitrile, Thermo Fisher) was added. […] The supernatant was collected and analyzed by liquid chromatography-tandem mass spectrometry (LC-MS/MS; AB Sciex API 5000).
Plasma sample pretreatment: After thawing at room temperature, 50 µL of each plasma sample was mixed with 300 µL of the internal standard solution (tolbutamide at 8 µg/mL in acetonitrile, Thermo Fisher). […] The supernatant was collected and analyzed by LC-MS/MS (AB Sciex API 5000).
Raw chromatograms, concentrations, and accuracy data were generated using Analyst software version 1.6.3.
For `Cc1c(NS(=O)(=O)c2c(Cl)cc(-c3ccc4sc5c(c4c3)CNCC5)cc2Cl)c(CC#N)nn1C` [Compound 13], the “1 h Concentration” value amounted to 1893 ± 196 ng/mL.

Still in this series, the particulars now being: ICR mice, oral single dose of 10 mg/kg in 0.5% CMC, 4 h post-dose, Mean ± SEM, n = 3.
As for `Cc1c(NS(=O)(=O)c2c(Cl)cc(-c3ccc4sc5c(c4c3)CNCC5)cc2Cl)c(CC#N)nn1C` [Compound 13], the “4 h Concentration” value is 623 ± 109 ng/mL.

The same series, now with this note: ICR mice, oral single dose of 10 mg/kg in 0.5% CMC, 8 h post-dose, Mean ± SEM, n = 3.
Turning to `Cc1c(NS(=O)(=O)c2c(Cl)cc(-c3ccc4sc5c(c4c3)CNCC5)cc2Cl)c(CC#N)nn1C` [Compound 13], the “8 h Concentration” value is 334 ± 83 ng/mL.

Staying with this series, now noted: ICR, mouse, po, 10 mg/kg.
For `CCc1nn(C)c(C)c1NS(=O)(=O)c1c(Cl)cc(-c2ccc3sc4c(c3c2)CNCC4)cc1Cl` [Compound 2], the concentration at 1 h came to 2890 ± 858 ng/mL, the concentration at 4 h was found to be 1960 ± 190 ng/mL and the concentration at 8 h worked out at 915 ± 97 ng/mL.

In turn, `Cc1c(NS(=O)(=O)c2c(Cl)cc(-c3ccc4sc5c(c4c3)CNCC5)cc2Cl)c(CC(C)C)nn1C` [Compound 3] had a concentration at 1 h of 2407 ± 21 ng/mL, a concentration at 4 h of 1980 ± 417 ng/mL and a concentration at 8 h of 1140 ± 551 ng/mL.

The molecule `Cc1c(NS(=O)(=O)c2c(Cl)cc(-c3ccc4oc5c(c4c3)CNCC5)cc2Cl)c(CC(C)C)nn1C` [Compound 45] registered a concentration at 1 h of 2970 ± 855 ng/mL, a concentration at 4 h of 3260 ± 876 ng/mL and a concentration at 8 h of 1960 ± 467 ng/mL.

The next series has as its target T1, NMT1 enzyme (Homo sapiens, UniProt P30419).
T1 sequence (P30419 1-496): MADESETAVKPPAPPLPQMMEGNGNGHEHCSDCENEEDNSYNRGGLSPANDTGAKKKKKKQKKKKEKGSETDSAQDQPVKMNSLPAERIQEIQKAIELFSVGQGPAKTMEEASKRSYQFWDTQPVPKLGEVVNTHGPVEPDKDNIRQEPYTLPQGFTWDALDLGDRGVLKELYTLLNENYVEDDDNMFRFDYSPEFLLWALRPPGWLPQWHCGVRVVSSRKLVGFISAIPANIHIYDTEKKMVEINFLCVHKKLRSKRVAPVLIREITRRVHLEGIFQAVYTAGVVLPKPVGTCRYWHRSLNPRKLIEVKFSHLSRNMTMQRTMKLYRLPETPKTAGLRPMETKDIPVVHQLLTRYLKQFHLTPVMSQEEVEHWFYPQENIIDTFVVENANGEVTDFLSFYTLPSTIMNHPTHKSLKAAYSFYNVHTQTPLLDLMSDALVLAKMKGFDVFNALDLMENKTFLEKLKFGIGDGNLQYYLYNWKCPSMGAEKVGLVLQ
As to the kind of experiment: Inhibitory activity on NMT1 enzyme catalysis (fluorescence intensity assay).
Details: not given
It counts as biochemical. The procedure:
This study evaluated the ability of the compounds of the invention to inhibit NMT1 catalytic activity in vitro. […] The final concentration of the NMT1 enzyme was 6 nM, the final concentration of CPM (Reactive thiol fluorescence probe, Invitrogen, D346) was 1 µM, the final concentration of HSPP60 SRC was 20 µM, and the final concentration of DMSO was 0.5%.
Compounds were dissolved in DMSO to obtain 10 mM stock solutions. Dose-response solutions were prepared with a top endpoint compound concentration of 3 mM, followed by three-fold serial dilutions in DMSO, totaling ten data points. […] Then, 2.5 µL of the NMT1 enzyme working solution was added to the 384-well assay plate, followed by incubation at 25 °C for 10 minutes. Subsequently, 5 µL of the CPM and myristoyl-CoA working solution was added, the plate was centrifuged at 1000 rpm for 1 minute, and then 2.5 µL of the HSPP60 SRC working solution was added to initiate the reaction. The reaction was incubated at 25 °C for 45 minutes.
The IC50 curve of the compounds was fitted using the software XLfit 5.5.0 according to the nonlinear regression equation.
`Cc1c(NS(=O)(=O)c2c(Cl)cc(-c3ccc4sc5c(c4c3)CNCC5)cc2Cl)c(CC#N)nn1C` [Compound 13] showed an IC50 of 3.21 nM.

Still in this series, the particulars now being: 6 nM NMT1 enzyme, 1.25 µM myristoyl-CoA, 20 µM HSPP60 SRC peptide, 45 minutes at 25 °C; read-out: NMT1 (IC50).
With `CCc1nn(C)c(C)c1NS(=O)(=O)c1c(Cl)cc(-c2ccc3sc4c(c3c2)CNCC4)cc1Cl` [Compound 2], the IC50 stood at 3.09 nM.

For `Cc1c(NS(=O)(=O)c2c(Cl)cc(-c3ccc4sc5c(c4c3)CNCC5)cc2Cl)c(CC(C)C)nn1C` [Compound 3], the IC50 is 3.45 nM.

Take `Cc1c(NS(=O)(=O)c2c(Cl)cc(-c3ccc4oc5c(c4c3)CNCC5)cc2Cl)c(CC(C)C)nn1C` [Compound 45]: the IC50 turned out to be 5.38 nM.

A further series has as its system MV-4-11 tumors. As to the kind of experiment: In vivo anti-tumor efficacy in MV-4-11 xenograft mouse model. The conditions noted are these: female BALB/c nude mice, PO QD 30 mg/kg, Figure 2.
Excerpt: as §1, §2, §3
For `CCc1nn(C)c(C)c1NS(=O)(=O)c1c(Cl)cc(-c2ccc3sc4c(c3c2)CNCC4)cc1Cl` [Compound 2], the “Tumor volume / growth of MV-4-11 tumors” value is “significantly inhibited the growth of MV-4-11 tumors and induced tumor regression”.

Take `Cc1c(NS(=O)(=O)c2c(Cl)cc(-c3ccc4sc5c(c4c3)CNCC5)cc2Cl)c(CC(C)C)nn1C` [Compound 3]: the “Tumor volume / growth of MV-4-11 tumors” value is “significantly inhibited the growth of MV-4-11 tumors and induced tumor regression”.

Regarding `Cc1c(NS(=O)(=O)c2c(Cl)cc(-c3ccc4sc5c(c4c3)CNCC5)cc2Cl)c(CC#N)nn1C` [Compound 13], the “Tumor volume / growth of MV-4-11 tumors” value was “significantly inhibited the growth of MV-4-11 tumors and induced tumor regression”.

Consider `Cc1c(NS(=O)(=O)c2c(Cl)cc(-c3ccc4oc5c(c4c3)CNCC5)cc2Cl)c(CC(C)C)nn1C` [Compound 45], for which the “Tumor volume / growth of MV-4-11 tumors” value was “significantly inhibited the growth of MV-4-11 tumors and induced tumor regression”.
